Experimental data: US12157741B2, “Macrocyclic inhibitors of DYRK1A” (DANA-FARBER CANCER INSTITUTE, INC., priority 2018, dated 2024)
Where two headings read alike, the source gives them in different places.

Columns and labels:
Assay type in all cases: binding
[1] = target: various enzymes (Homo sapiens, UniProt P23443); details: compound 1 uM
Protocol: (§1) Ambit profiling was conducted in accordance with the manufacturer's instructions.

[2] = target: various enzymes (Homo sapiens, UniProt Q15303); details: compound 1 uM
Protocol: as §1

[3] = target: various enzymes (Homo sapiens, UniProt P49761); details: compound 1 uM
Protocol: as §1

[4] = target: various enzymes (Homo sapiens, UniProt P54753); details: compound 1 uM
Protocol: as §1

[5] = target: various enzymes (Homo sapiens, UniProt P36888, K663Q)
Protocol: as §1

[6] = target: various enzymes (Homo sapiens, UniProt Q99759); details: compound 1 uM
Protocol: as §1

[7] = target: T1, various enzymes (Homo sapiens, UniProt Q8IVH8); details: compound 1 uM
T1 sequence (Q8IVH8 1-894): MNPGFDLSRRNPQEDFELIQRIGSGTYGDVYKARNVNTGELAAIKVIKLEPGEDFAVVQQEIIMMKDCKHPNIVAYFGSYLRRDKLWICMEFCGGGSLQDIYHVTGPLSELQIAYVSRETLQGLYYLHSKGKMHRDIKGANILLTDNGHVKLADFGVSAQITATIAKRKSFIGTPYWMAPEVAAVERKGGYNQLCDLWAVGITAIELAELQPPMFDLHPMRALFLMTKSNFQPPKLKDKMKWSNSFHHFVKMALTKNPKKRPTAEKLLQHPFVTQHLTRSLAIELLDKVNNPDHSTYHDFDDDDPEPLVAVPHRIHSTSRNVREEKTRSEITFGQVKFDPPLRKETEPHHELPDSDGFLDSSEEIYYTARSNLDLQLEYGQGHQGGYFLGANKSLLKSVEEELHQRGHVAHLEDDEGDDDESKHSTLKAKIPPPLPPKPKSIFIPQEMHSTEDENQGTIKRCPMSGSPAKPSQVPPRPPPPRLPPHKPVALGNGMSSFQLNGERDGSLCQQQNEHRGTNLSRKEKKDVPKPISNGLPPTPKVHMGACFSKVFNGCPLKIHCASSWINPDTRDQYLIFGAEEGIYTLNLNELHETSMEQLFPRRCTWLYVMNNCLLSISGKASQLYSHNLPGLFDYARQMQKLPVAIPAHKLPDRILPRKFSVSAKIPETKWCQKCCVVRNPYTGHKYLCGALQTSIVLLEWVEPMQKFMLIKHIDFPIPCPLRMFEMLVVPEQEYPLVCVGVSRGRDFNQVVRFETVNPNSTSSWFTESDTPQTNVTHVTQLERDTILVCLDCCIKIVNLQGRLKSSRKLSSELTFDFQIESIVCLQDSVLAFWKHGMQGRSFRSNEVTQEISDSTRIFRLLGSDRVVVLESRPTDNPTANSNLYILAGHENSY
Protocol: as §1

[8] = target: various enzymes (Homo sapiens, UniProt Q13177); details: compound 1 uM
Protocol: as §1

[9] = target: various enzymes (Homo sapiens, UniProt Q13546); details: compound 1 uM
Protocol: as §1

[10] = target: various enzymes (Homo sapiens, UniProt Q16288); details: compound 1 uM
Protocol: as §1

[11] = target: various enzymes (Homo sapiens, UniProt Q13705); details: compound 1 uM
Protocol: as §1

[12] = target: various enzymes (Homo sapiens, UniProt O94768); details: compound 1 uM
Protocol: as §1

[13] = target: various enzymes (Homo sapiens, UniProt Q86Z02); details: compound 1 uM
Protocol: as §1

[14] = target: various enzymes (Homo sapiens, UniProt Q9HBH9); details: compound 1 uM
Protocol: as §1

[15] = target: various enzymes (Homo sapiens, UniProt Q9UK32); details: compound 1 uM
Protocol: as §1

[16] = target: various enzymes (Homo sapiens, UniProt P31749); details: compound 1 uM
Protocol: as §1

[17] = target: various enzymes (Homo sapiens, UniProt Q9P289); details: compound 1 uM
Protocol: as §1

[18] = target: various enzymes (Homo sapiens, UniProt Q6P2M8); details: compound 1 uM
Protocol: as §1

[19] = target: T2, various enzymes (Homo sapiens, UniProt Q12852); details: compound 1 uM
T2 sequence (Q12852 1-859): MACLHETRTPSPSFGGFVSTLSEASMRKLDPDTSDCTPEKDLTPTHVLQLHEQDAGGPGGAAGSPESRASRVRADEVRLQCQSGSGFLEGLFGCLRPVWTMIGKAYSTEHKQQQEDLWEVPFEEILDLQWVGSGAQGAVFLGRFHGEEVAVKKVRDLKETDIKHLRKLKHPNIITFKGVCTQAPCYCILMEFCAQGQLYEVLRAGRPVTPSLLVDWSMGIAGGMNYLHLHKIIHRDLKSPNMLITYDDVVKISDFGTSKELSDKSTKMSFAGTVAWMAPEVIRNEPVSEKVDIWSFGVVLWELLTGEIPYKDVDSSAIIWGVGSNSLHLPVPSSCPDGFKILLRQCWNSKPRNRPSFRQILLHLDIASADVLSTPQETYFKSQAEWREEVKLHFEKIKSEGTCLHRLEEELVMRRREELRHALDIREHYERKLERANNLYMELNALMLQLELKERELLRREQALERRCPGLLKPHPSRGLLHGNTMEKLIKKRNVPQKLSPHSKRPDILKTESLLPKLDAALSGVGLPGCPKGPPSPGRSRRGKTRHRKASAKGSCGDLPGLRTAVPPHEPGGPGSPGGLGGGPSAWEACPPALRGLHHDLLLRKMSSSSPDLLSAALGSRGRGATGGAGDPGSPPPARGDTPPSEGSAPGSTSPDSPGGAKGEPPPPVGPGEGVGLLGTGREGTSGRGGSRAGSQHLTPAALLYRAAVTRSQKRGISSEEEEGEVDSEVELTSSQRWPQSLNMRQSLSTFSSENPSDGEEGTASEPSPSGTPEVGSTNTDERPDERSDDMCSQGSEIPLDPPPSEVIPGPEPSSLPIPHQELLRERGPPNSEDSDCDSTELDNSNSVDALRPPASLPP
Protocol: as §1

[20] = target: various enzymes (Homo sapiens, UniProt P22607, G697C)
Protocol: as §1

[21] = target: various enzymes (Homo sapiens, UniProt P21860); details: compound 1 uM
Protocol: as §1

various enzymes (Homo sapiens, UniProt Q9UK32), sequence (Q9UK32 whole entry): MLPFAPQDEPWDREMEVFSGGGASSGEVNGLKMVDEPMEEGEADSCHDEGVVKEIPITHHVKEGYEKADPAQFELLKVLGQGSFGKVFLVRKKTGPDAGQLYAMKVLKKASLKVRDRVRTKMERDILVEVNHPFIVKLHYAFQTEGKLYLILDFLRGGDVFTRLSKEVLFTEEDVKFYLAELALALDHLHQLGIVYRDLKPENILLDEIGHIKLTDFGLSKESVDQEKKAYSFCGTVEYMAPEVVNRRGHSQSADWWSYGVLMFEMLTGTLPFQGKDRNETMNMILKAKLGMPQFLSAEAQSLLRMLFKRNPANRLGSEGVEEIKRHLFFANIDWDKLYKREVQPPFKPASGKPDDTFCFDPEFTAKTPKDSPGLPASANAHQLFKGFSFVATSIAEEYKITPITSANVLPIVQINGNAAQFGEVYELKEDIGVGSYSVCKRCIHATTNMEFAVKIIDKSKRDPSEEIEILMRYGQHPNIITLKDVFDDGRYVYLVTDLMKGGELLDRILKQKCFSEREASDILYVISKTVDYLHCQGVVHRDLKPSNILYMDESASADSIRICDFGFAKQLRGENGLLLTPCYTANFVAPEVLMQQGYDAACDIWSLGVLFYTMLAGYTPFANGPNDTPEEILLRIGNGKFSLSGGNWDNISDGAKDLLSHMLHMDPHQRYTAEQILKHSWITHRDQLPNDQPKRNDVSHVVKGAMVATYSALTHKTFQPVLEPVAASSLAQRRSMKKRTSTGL
various enzymes (Homo sapiens, UniProt Q15303), sequence (Q15303 26-1308): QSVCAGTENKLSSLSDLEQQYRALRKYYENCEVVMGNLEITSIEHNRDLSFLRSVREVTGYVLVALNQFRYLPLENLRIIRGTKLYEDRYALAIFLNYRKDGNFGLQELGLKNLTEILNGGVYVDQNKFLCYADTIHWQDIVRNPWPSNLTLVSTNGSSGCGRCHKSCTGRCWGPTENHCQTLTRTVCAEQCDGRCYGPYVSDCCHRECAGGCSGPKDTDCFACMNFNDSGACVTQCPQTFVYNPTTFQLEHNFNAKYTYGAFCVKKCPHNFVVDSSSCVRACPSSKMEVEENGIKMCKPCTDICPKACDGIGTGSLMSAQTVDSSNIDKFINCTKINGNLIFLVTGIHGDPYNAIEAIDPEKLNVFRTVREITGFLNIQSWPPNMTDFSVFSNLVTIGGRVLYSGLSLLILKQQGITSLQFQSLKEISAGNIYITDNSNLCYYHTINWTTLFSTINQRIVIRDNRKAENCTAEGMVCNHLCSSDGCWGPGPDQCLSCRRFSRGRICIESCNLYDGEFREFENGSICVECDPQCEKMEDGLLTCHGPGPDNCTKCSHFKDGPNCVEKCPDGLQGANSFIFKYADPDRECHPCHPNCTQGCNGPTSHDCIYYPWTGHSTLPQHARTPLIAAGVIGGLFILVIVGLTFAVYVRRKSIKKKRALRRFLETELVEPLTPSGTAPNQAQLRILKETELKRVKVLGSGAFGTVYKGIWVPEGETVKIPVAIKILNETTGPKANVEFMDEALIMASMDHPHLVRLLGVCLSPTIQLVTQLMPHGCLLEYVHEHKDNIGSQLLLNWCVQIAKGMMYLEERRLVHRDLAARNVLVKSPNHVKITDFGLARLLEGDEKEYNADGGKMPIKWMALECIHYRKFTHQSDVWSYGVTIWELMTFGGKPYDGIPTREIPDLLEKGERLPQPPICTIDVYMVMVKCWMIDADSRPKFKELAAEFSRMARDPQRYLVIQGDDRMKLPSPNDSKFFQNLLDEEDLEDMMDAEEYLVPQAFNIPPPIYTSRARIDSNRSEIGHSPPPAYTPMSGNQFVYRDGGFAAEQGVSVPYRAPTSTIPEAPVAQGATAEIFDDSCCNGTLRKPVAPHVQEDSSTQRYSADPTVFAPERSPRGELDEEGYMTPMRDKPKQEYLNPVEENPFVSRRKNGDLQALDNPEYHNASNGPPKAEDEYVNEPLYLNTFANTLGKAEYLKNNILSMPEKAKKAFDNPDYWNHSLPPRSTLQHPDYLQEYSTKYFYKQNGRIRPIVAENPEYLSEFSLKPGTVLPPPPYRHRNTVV
various enzymes (Homo sapiens, UniProt Q13705), sequence (Q13705 19-512): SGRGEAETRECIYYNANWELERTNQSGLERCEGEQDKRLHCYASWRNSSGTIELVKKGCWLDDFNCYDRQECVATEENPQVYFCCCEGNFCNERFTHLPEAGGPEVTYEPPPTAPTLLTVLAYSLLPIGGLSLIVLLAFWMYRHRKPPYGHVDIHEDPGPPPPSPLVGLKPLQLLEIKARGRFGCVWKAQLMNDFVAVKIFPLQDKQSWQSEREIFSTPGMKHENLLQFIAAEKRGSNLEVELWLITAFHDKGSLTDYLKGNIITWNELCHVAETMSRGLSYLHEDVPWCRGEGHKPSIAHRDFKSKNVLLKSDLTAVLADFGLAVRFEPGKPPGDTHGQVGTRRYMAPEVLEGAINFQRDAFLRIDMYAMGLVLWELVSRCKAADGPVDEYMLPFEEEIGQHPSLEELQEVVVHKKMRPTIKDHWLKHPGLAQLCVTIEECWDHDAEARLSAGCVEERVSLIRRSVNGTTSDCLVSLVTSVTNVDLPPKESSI
various enzymes (Homo sapiens, UniProt Q99759), sequence (Q99759 whole entry): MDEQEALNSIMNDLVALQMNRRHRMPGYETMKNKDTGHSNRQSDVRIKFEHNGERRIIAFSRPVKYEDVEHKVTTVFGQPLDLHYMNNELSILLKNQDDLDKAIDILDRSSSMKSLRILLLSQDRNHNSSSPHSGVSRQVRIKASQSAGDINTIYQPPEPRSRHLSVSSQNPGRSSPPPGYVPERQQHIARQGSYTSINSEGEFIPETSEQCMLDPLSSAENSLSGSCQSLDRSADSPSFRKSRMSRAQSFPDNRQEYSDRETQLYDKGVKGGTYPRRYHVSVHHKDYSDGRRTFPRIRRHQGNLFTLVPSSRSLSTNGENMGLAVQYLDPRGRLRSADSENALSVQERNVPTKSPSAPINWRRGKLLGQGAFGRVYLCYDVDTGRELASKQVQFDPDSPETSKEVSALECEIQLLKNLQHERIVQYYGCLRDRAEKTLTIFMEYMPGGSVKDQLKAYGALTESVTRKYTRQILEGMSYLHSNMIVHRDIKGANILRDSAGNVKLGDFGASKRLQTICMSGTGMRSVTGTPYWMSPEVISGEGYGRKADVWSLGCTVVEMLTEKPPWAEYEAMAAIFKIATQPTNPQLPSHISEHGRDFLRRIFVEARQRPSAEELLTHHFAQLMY
various enzymes (Homo sapiens, UniProt Q13546), sequence (Q13546 whole entry): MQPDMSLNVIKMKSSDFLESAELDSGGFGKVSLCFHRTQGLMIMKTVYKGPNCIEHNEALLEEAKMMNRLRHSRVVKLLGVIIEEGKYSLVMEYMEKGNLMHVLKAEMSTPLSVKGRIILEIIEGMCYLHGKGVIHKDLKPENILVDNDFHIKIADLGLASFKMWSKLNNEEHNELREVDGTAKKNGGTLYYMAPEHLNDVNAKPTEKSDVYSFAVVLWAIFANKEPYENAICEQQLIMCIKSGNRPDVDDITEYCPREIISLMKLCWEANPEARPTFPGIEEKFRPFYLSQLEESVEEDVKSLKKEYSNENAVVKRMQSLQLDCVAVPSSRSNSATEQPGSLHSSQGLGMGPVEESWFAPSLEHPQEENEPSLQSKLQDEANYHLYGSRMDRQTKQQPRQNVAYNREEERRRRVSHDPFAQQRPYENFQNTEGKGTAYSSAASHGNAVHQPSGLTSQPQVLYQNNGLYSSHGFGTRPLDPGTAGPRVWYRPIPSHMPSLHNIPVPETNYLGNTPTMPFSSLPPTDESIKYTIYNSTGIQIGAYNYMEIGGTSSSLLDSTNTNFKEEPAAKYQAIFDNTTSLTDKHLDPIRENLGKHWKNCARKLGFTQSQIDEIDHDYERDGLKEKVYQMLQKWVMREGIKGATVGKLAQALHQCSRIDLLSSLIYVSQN
various enzymes (Homo sapiens, UniProt Q9P289), sequence (Q9P289 whole entry): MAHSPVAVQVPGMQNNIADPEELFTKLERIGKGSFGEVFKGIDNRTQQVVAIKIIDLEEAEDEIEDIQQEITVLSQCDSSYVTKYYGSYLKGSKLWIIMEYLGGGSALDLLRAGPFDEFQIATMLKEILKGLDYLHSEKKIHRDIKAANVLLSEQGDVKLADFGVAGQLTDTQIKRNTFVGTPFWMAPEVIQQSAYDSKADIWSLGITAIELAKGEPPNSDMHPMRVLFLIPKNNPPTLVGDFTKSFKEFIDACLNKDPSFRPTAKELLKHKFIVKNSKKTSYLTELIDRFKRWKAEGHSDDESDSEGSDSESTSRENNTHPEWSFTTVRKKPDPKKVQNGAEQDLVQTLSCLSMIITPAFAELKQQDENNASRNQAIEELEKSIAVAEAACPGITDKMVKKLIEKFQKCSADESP
various enzymes (Homo sapiens, UniProt Q16288), sequence (Q16288 32-839): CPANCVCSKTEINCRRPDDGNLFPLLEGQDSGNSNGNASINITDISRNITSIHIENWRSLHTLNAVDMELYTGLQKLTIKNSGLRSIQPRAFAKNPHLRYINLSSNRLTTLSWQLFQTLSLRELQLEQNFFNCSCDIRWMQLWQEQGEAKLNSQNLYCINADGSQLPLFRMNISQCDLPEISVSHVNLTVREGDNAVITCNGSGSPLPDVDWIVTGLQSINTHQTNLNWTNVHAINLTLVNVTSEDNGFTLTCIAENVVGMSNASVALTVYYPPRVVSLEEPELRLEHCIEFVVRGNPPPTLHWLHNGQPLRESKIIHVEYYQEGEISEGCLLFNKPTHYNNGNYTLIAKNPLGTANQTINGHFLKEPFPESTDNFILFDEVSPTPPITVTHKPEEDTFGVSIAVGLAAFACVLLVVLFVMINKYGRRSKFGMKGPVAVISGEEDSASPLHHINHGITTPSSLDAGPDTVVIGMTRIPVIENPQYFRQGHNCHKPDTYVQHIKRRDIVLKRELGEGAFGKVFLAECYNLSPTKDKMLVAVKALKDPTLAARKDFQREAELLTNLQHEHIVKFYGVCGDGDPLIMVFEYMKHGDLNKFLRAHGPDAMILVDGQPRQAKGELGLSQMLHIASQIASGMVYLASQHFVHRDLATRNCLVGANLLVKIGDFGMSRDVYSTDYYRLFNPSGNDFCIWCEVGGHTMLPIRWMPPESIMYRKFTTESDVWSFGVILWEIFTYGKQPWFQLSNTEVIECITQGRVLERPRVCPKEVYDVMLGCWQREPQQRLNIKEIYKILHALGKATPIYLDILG

Compound | Ambit profiling: S6K1 [1] | Ambit profiling: ERBB4 [2] | Ambit profiling: CLK3 [3] | Ambit profiling: EPHB3 [4] | Ambit profiling: MAP3K3 [6] | Ambit profiling: MAP4K3 [7] | Ambit profiling: PAK2 [8] | Ambit profiling: RIPK1 [9] | Ambit profiling: TRKC [10] | Ambit profiling: ACVR2B [11] | Ambit profiling: DRAK2 [12] | Ambit profiling: HIPK1 [13] | Ambit profiling: MKNK2 [14] | Ambit profiling: RSK4(Kin.Dom.1-N-terminal) [15] | Ambit profiling: RSK4(Kin.Dom.2-C-terminal) [15] | Ambit profiling: AKT1 [16] | Ambit profiling: MST4 [17] | Ambit profiling: CAMK1B [18] | Ambit profiling: DLK [19] | Ambit profiling: ERBB3 [21] | other results
CC(C)N1Cc2nn(C)cc2-c2cnc3[nH]cc(c3c2)-c2cn(nc2C(F)(F)F)CCCC1=O [Compound 45, (Z)-5-isopropyl-31-methyl-13-(trifluoromethyl)-11H,21H,31H-5-aza-2(3,5)-pyrrolo[2,3-b]pyridina-1(4,1),3(4,3)-dipyrazolacyclononaphan-6-one] | 2.5 | 55 | 33 | 97 | 0.35 | 18 | 74 | 85 | 0.1 | 79 | 100 | 6.5 | 100 | 2.6 | 95 | 100 | 24 | 25 | 32 | 100 | Ambit profiling: FLT3(K663Q) ([5]; compound 1 uM): 2; Ambit profiling: FGFR3(G697C) ([20]; compound 1 uM): 4.5
COc1c2c(nn1C)CN(C(C)C)C(=O)CCCn1cc(c(C(F)(F)F)n1)-c1c[nH]c3ncc-2cc13 [Compound 50, (Z)-5-isopropyl-35-methoxy-31-methyl-13-(trifluoromethyl)-11H,21H,31H-5-aza-2(3,5)-pyrrolo[2,3-b]pyridina-1(4,1),3(4,3)-dipyrazolacyclononaphan-6-one] | 8.6 | 32 | 26 | 62 | 0.3 | 16 | 100 | 59 | 0 | 92 | 98 | 13 | 53 | 2.3 | 74 | 100 | 60 | 16 | 25 | 100 | Ambit profiling: FLT3(K663Q) [5]: 0.9; Ambit profiling: FGFR3(G697C) [20]: 6.4
